Measurements: patent publication US20240293413A1, “COMPOUND AND METHOD FOR TREATING CHEMOTHERAPY-RELATED GASTROINTESTINAL SIDE EFFECTS” (ONQUALITY PHARMACEUTICALS CHINA LTD., priority 2021, published 2024)

Tests used:
[1] = tested on: Chemotherapeutic agent-caused constipation models of Balb/c mice; test: Examples 272-342 (Table 5): oral CDK inhibitor, relief of constipation caused by a chemotherapeutic agent; type: in vivo;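 note: percent of treated mice relieved versus chemotherapy group by feces reduction rate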
How it was run: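 Balb/c mice, 10 per group: control, chemotherapeutic agent alone, or intragastric CDK inhibitor followed by the chemotherapeutic agent. Feces produced within 3 hours were recorded daily, and feces reduction rate (%) was calculated relative to the control group.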

[2] = tested on: constipation caused by a chemotherapeutic agent in Balb/c mice; test: Examples 406-443 (Table 8): various administration modes of the CDK inhibitor, relief of constipation caused by a chemotherapeutic agent; type: in vivo;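 for Relative remission rate of oral administration: percent of treated mice relieved versus chemotherapy group by feces reduction rate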;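 for Relative remission rate of other administration mode: percent of treated mice relieved versus chemotherapy group by feces reduction rate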
Text: Balb/c mice were fed for 1 week, and then divided into groups. The experiment was divided into a control group, a chemotherapeutic agent group, CDK inhibitor groups (including an oral administration group of a CDK inhibitor, an intravenous injection group of a CDK inhibitor, an intraperitoneal injection group of a CDK inhibitor, an intramuscular injection group of a CDK inhibitor, a local administration group of a CDK inhibitor), each of which comprised 10 mice, to perform the administration experiment, for which the administration dosage, mode, time and frequency were shown in Table 8. The control group: being administered with the same solvent as that used in the CDK inhibitor group (the time and mode were shown in Table 8), and then being injected/intragastrically administered with the same solvent as that used in the chemotherapeutic agent group (the administration mode was shown in Table 8): the chemotherapeutic agent group: being administered with the same solvent as that used in the CDK inhibitor group (the time and mode were shown in Table 8), and then being injected/intragastrically administered with the chemotherapeutic agent (the type, administration mode and dosage were shown in Table 8): the oral administration group of the CDK inhibitor: being intragastrically administered with the CDK inhibitor (the time was shown in Table 8), and then being administered with the chemotherapeutic agent (the mode and dosage were shown in Table 8): the intravenous injection group of the CDK inhibitor: being injected with the CDK inhibitor through tail vein (the time was shown in Table 8), and then being administered with the chemotherapeutic agent (the mode and dosage were shown in Table 8): the intraperitoneal injection group of the CDK inhibitor: being intraperitoneally injected with the CDK inhibitor (the time was shown in Table 8), and then being administered with the chemotherapeutic agent (the mode and dosage were shown in Table 8): the intramuscular injection group of the CDK inhibitor: being intramuscularly injected with the CDK inhibitor (the time was shown in Table 8), and then being administered with the chemotherapeutic agent (the mode and dosage were shown in Table 8); and the local administration group of the CDK inhibitor: the hair on the abdomen of mice was shaved (about 2 cm*2 cm), being applied with the CDK inhibitor (the time was shown in Table 8), and then being administered with the chemotherapeutic agent (the mode and dosage were shown in Table 8).
Feces reduction rate (%)=(the control group−the chemotherapeutic agent group or the CDK inhibitor group)/the control group*100%
The feces amount of mice within 3 hours was observed and recorded every day.

CN(C)C(=O)c1cc2cnc(Nc3ccc(N4CCNCC4)cn3)nc2n1C1CCCC1 [Ribociclib]
Relative remission rate ([1]; Example 294, Fluorouracil (5-Fu) intravenous injection 225 mg/kg single, CDK inhibitor oral 150 mg/kg single, 0.5 h before, cycle 7 days): 50% | Relative remission rate ([1]; Example 302, Oxaliplatin intravenous injection 20 mg/kg single, CDK inhibitor oral 150 mg/kg single, 1 h before, cycle 8 days): 50% | Relative remission rate ([1]; Example 310, Irinotecan (CPT-11) oral administration 300 mg/kg single, CDK inhibitor oral 100 mg/kg single, 20 h before, cycle 11 days): 50% | Relative remission rate ([1]; Example 325, Gemcitabine and paclitaxel intravenous injection 60 (G) 10 (P) mg/kg single, CDK inhibitor oral 125 mg/kg single, 0.5 h before, cycle 8 days): 50% | Relative remission rate ([1]; Example 336, Methotrexate (MTX) intravenous injection 300 mg/kg single, CDK inhibitor oral 125 mg/kg single, 0.5 h before, cycle 7 days): 40% | Relative remission rate ([1]; Example 337, Methotrexate (MTX) intravenous injection 300 mg/kg single, CDK inhibitor oral 125 mg/kg single, 4 h before, cycle 7 days): 40% | Relative remission rate ([1]; Example 338, Methotrexate (MTX) intravenous injection 300 mg/kg single, CDK inhibitor oral 125 mg/kg single, 8 h before, cycle 7 days): 50% | Relative remission rate ([1]; Example 339, Methotrexate (MTX) intravenous injection 300 mg/kg single, CDK inhibitor oral 125 mg/kg single, 12 h before, cycle 7 days): 30% | Relative remission rate ([1]; Example 340, Methotrexate (MTX) intravenous injection 300 mg/kg single, CDK inhibitor oral 125 mg/kg single, 24 h before, cycle 7 days): 60% | Relative remission rate ([1]; Example 341, Methotrexate (MTX) intravenous injection 300 mg/kg single, CDK inhibitor oral 125 mg/kg single, 48 h before, cycle 7 days): 0% | Relative remission rate of other administration mode ([2]; Example 424, Carboplatin intraperitoneal injection 120 mg/kg single, CDK inhibitor intraperitoneal injection 200 mg/kg single, 0.5 h before, cycle 10 days): 10% | Relative remission rate of oral administration ([2]; Example 424, Carboplatin intraperitoneal injection 120 mg/kg single, CDK inhibitor oral 200 mg/kg single, 0.5 h before, cycle 10 days): 20% | Relative remission rate of other administration mode ([2]; Example 425, Carboplatin intraperitoneal injection 120 mg/kg single, CDK inhibitor intraperitoneal injection 200 mg/kg single, 4 h before, cycle 10 days): 10% | Relative remission rate of oral administration ([2]; Example 425, Carboplatin intraperitoneal injection 120 mg/kg single, CDK inhibitor oral 200 mg/kg single, 4 h before, cycle 10 days): 30% | Relative remission rate of other administration mode ([2]; Example 426, Carboplatin intraperitoneal injection 120 mg/kg single, CDK inhibitor intraperitoneal injection 200 mg/kg single, 8 h before, cycle 10 days): 20% | Relative remission rate of oral administration ([2]; Example 426, Carboplatin intraperitoneal injection 120 mg/kg single, CDK inhibitor oral 200 mg/kg single, 8 h before, cycle 10 days): 50% | Relative remission rate of other administration mode ([2]; Example 427, Carboplatin intraperitoneal injection 120 mg/kg single, CDK inhibitor intraperitoneal injection 200 mg/kg single, 12 h before, cycle 10 days): 20% | Relative remission rate of oral administration ([2]; Example 427, Carboplatin intraperitoneal injection 120 mg/kg single, CDK inhibitor oral 200 mg/kg single, 12 h before, cycle 10 days): 50% | Relative remission rate of other administration mode ([2]; Example 428, Carboplatin intraperitoneal injection 120 mg/kg single, CDK inhibitor intraperitoneal injection 200 mg/kg single, 24 h before, cycle 10 days): 10% | Relative remission rate of oral administration ([2]; Example 428, Carboplatin intraperitoneal injection 120 mg/kg single, CDK inhibitor oral 200 mg/kg single, 24 h before, cycle 10 days): 40% | Relative remission rate of other administration mode ([2]; Example 435, Gemcitabine oral administration 300 mg/kg single, CDK inhibitor local administration 100 mg/kg single, 24 h before, cycle 8 days): 20% | Relative remission rate of oral administration ([2]; Example 435, Gemcitabine oral administration 300 mg/kg single, CDK inhibitor oral 100 mg/kg single, 24 h before, cycle 8 days): 50% | improvement of constipation by oral administration, intraperitoneal injection, intramuscular injection, local administration ([2]; constipation caused by doxorubicin, etoposide, etoposide plus cisplatin, carboplatin, gemcitabine, gemcitabine plus carboplatin, under certain conditions, oral most significant): can significantly improve constipation
